Test results reported in the Kinase Knowledgebase extract (Sharma et al. 2016).

What was measured:
[1] = biological target: ROCK2 (UniProt O75116); assay: Inhibition of ROCK2 Kinase Activity; settings: for inhibition: concentration not given here
[2] = biological target: CDK2 (UniProt P24941); assay: Enzyme Assay; settings: for inhibition: concentration not given here
[3] = biological target: EGFR (UniProt P00533); settings: concentration not given here
[4] = biological target: MAPK14 (UniProt Q16539); assay: Inhibition of MAPK14 Kinase Activity; settings: concentration not given here
Sequence of MAPK14 (Q16539 whole entry, looked up): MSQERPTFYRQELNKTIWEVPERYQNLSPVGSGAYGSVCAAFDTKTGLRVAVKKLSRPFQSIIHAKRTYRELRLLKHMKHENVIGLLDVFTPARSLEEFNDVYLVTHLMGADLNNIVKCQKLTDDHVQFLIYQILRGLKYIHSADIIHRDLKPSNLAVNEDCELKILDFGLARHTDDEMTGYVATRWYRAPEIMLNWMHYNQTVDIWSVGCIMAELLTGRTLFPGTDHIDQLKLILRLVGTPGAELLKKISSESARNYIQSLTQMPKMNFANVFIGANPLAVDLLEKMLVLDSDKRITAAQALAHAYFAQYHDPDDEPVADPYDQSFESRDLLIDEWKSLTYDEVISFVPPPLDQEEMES

Sequence of EGFR (P00533 whole entry, looked up): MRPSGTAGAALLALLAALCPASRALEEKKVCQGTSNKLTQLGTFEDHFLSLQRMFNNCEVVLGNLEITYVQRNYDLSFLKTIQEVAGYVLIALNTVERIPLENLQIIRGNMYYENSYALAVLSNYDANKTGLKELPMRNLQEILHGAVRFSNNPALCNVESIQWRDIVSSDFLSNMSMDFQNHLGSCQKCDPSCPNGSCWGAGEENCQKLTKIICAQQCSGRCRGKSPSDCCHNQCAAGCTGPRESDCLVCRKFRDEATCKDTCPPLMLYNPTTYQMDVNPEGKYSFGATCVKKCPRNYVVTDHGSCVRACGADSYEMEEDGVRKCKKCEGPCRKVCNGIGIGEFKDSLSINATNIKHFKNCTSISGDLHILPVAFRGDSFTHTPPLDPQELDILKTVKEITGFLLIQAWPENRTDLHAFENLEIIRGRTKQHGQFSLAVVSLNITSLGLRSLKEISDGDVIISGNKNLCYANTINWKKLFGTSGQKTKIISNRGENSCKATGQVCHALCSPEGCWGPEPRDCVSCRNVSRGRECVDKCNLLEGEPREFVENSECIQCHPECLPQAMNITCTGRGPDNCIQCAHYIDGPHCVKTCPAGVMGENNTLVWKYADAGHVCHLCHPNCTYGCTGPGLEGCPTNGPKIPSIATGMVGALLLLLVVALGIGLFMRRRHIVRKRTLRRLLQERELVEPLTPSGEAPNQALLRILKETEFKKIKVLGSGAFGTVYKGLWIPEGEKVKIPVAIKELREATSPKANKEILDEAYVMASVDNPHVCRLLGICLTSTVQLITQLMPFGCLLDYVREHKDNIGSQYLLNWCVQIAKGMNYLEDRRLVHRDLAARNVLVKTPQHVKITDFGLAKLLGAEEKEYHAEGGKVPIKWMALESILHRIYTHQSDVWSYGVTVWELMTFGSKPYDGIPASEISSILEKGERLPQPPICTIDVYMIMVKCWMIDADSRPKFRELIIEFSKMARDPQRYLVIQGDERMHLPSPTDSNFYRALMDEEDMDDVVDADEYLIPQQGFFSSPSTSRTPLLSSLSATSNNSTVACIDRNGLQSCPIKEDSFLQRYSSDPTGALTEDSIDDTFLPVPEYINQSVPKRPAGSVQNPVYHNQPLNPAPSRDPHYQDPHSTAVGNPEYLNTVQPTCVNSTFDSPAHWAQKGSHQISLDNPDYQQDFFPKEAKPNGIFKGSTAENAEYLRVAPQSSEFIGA
Sequence of ROCK2 (O75116 whole entry, looked up): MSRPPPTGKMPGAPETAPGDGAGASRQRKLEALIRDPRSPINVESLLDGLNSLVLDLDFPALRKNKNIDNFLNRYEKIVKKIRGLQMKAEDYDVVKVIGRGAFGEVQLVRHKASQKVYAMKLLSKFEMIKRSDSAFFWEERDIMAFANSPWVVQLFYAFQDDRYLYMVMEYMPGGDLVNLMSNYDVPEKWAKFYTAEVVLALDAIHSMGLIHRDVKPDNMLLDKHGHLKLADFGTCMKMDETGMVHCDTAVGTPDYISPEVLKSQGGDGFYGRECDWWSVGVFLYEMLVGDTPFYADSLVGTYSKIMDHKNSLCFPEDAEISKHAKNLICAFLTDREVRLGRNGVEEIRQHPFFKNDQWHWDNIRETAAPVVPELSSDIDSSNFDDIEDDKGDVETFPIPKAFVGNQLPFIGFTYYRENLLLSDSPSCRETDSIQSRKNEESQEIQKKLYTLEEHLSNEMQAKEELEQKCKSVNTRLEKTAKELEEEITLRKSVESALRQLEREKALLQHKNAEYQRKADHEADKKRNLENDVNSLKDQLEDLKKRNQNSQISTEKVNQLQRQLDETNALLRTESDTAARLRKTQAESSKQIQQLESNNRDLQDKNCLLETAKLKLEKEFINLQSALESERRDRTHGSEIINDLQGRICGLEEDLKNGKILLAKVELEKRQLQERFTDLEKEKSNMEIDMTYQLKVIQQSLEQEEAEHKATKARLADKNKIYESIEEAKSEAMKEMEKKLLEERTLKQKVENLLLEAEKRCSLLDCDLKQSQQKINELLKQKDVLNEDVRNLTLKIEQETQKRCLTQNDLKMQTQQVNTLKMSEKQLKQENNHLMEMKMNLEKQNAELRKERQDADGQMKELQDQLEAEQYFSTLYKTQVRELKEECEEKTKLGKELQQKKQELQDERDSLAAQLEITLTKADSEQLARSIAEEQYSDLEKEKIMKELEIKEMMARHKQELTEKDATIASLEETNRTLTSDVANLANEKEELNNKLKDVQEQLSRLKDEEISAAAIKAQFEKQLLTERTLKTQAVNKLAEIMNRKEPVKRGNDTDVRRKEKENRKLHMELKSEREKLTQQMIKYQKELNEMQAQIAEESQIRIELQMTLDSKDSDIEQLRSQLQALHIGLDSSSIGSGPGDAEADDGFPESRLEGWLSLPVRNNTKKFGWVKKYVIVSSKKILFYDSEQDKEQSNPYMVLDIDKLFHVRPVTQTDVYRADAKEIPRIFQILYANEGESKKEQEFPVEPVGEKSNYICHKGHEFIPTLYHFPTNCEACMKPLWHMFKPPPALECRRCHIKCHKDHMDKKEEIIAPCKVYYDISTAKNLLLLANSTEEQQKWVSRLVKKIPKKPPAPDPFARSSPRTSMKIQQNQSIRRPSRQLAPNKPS

Row | inhibition [3] [%] | inhibition [1] [%] | Compound | other results
1 | 50 to 90 | – | Oc1ccc(-c2cncc(NCc3cccc(O)c3)c2)cc1 | IC50 [1]: < 1000 nM; inhibition [2]: > 90%
2 | 50 to 90 | – | O=C(O)c1cccc(-c2cncc(NCc3cccc(O)c3)c2)c1 | –
3 | 50 to 90 | – | Nc1cccc(-c2cncc(NCc3cccc(O)c3)c2)c1 | –
4 | 50 to 90 | 50 to 90 | COc1cccc(-c2cncc(NCc3cccc(O)c3)c2)c1 | IC50 [2]: < 1000 nM
5 | 50 to 90 | – | Oc1cccc(CNc2cncc(-c3ccccc3)c2)c1 | –
6 | 50 to 90 | – | OCc1cccc(-c2cncc(NCc3cccc(O)c3)c2)c1 | –
7 | 50 to 90 | – | CS(=O)(=O)Nc1cccc(-c2cncc(NCc3cccc(O)c3)c2)c1 | –
8 | 50 to 90 | – | COc1cccc(-c2cncc(NCc3cccc(O)c3)c2)c1F | –
9 | 50 to 90 | – | COc1ccc(-c2cncc(NCc3cccc(O)c3)c2)cc1OC | –
10 | 50 to 90 | – | CC(=O)Nc1cccc(-c2cncc(NCc3cccc(O)c3)c2)c1 | inhibition [4]: 50 to 90%
11 | 50 to 90 | – | CN(C)CCNC(=O)c1cccc(-c2cncc(NCc3cccc(O)c3)c2)c1 | –
12 | 50 to 90 | – | CC(=O)Nc1cccc(-c2cncc(Nc3ccccc3F)c2)c1 | –
13 | – | 50 to 90 | Oc1ccc(-c2cncc(NCc3ccc(F)c(F)c3)c2)cc1 | –
14 | 50 to 90 | – | NC(=O)c1cccc(-c2cncc(NCc3cccc(O)c3)c2)c1 | IC50 [1]: < 1000 nM
15 | 50 to 90 | – | Oc1cccc(CNc2cncc(-c3cccnc3)c2)c1 | –
16 | 50 to 90 | – | O=C(NCCO)c1cccc(-c2cncc(NCc3cccc(O)c3)c2)c1 | –
17 | – | 50 to 90 | Oc1ccc(-c2cncc(NCc3ccc4c(c3)OCO4)c2)cc1 | –
18 | > 90 | – | Oc1cccc(CCNc2cncc(-c3cccc(O)c3)c2)c1 | –
19 | > 90 | – | O=C(Nc1cncc(-c2cccc(O)c2)c1)c1cccc(O)c1 | –
20 | 50 to 90 | 50 to 90 | Cc1ccc(CNc2cncc(-c3cccc(O)c3)c2)cc1O | –
21 | – | 50 to 90 | COC(=O)c1cccc(-c2cncc(NCc3cccc(O)c3)c2)c1 | inhibition [2]: > 90%
22 | 50 to 90 | – | Oc1cccc(CNc2cncc(-c3ccc(N4CCOCC4)cc3)c2)c1 | –
23 | – | 50 to 90 | Oc1cccc(CNc2cncc(Cc3cccc(O)c3)c2)c1 | inhibition [2]: > 90%
24 | 50 to 90 | – | Oc1cccc(CNc2cncc(-c3cccc(O)c3F)c2)c1 | –
25 | – | 50 to 90 | CN(Cc1cccc(O)c1)c1cncc(-c2cccc(O)c2)c1 | –
26 | 50 to 90 | – | COC(=O)c1cccc(CNc2cncc(-c3cccc(O)c3)c2)c1 | –
27 | 50 to 90 | 50 to 90 | OCc1ccc(-c2cncc(NCc3cccc(O)c3)c2)cc1 | –
28 | 50 to 90 | – | CC(=O)Nc1cccc(-c2cncc(Nc3ccc(F)cc3)c2)c1 | –
29 | 50 to 90 | 50 to 90 | Oc1cccc(CNc2cncc(-c3cccc(O)c3)c2)c1 | –
